Results published in PubChem BioAssay AID977623 (Broad Institute, 2014).
Records with an inconclusive call do not appear. Active and inactive are the calls of the source.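 How the source made its calls: active means red signal of normal-ribosome cells cut twice as much as green signal of humanized-ribosome cells, growth loss under 30%; inactive means the rest, inconclusive results apart.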

How the values were obtained:
[1] = growth inhibition of wild-type RFP E. coli, dose response, H69 mutant GFP, cherry-pick (AID 977623); conditions: E. coli WT-RFP/H69-GFP mixed culture, fluorescence, 24 h
[2] = test system: E. coli WT-RFP/H69-GFP mixed culture, fluorescence, 24 h; experiment: as above
[3] = measured here: H69 humanized strain GFP growth
[4] = E. coli WT-RFP/H69-GFP mixed culture, 24 h, measured here: total growth OD600

| SMILES | activity change, negative = inhibition ([1]; at 50 µM (top of the series)) | AC50 [2, 3] [µM] | AC50 [2, 4] [µM] | activity change, negative = inhibition ([1]; at 26 µM (top of the series)) | AC50 [2] |
| --- | --- | --- | --- | --- | --- |
| C[C@@H]1CCCCO[C@H](CN(C)C(=O)CCCN(C)C)[C@H](C)CN([C@@H](C)CO)C(=O)c2cc(NC(=O)Nc3cccc4ccccc34)ccc2O1 | 102 (inactive) | > 100 | – | – | – |
| Cc1ccc(C)c(NC(=O)CSc2nc3nc(-c4cccs4)cc(C(F)(F)F)c3c(=O)[nH]2)c1 | 16.1 (inactive) | 12.8 | 10.3 | – | – |
| COc1cc2c(cc1[N+](=O)[O-])-c1ccc([N+](=O)[O-])cc1C2 | – | > 100 | 2.76 | 77.3 (inactive) | – |
| COc1ccc(NC(=O)c2ccc(-c3ccc([N+](=O)[O-])cc3)o2)cc1 | – | > 100 | 5.6 | – | > 100 µM (inactive) |
| O=C(O)c1cc([N+](=O)[O-])ccc1NCc1ccccc1 | 3.75 (inactive) | – | 15.2 | – | – |
| CCOC(=O)c1c(NC(=O)Cc2cccs2)sc(C)c1C | 24.9 (inactive) | 47.4 | 9.61 | – | – |
| COc1ccc(Cn2c(-c3ccc(Cl)cc3)c[n+]3ccccc23)cc1 | 26.5 (inactive) | – | 47.2 | – | – |
| Cc1noc(C)c1NC(=O)Nc1ccc2c(c1)C(=O)N([C@H](C)CO)C[C@@H](C)[C@@H](CN(C)C(=O)Nc1ccc3c(c1)OCO3)OCCCC[C@@H](C)O2 | 153 (inactive) | – | > 100 | – | – |
| COc1ccc2[nH]c3c(=O)n(CCCCC(=O)NCCC(C)C)c(=S)[nH]c3c2c1 | 100 (inactive) | – | – | – | – |
